Reference: PubChem BioAssay AID463206 (Broad Institute, 2010)
The source made the active and inactive calls.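 The calls were made as follows: active = caspase luminescence falls with dose and the half-maximal concentration AC50 from the fitted curve is at or below a set limit; inconclusive = flat fit at 30 to 70% signal loss, or invalid fit; inactive = AC50 above the limit, or signal rises instead.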

system: INS-1E cytokine-induced caspase-3/7, Caspase-Glo luminescence, 48 h; assay: suppression of cytokine-driven beta-cell apoptosis – INS-1E rat cells, luminescence, orthogonal assay for beta-cell apoptosis protection project, dose response (AID 463206)

Structure (SMILES)	AC50
N#CC1=C(N)Oc2c(ccc3cccnc23)C1c1cccnc1 (stereo not drawn)	> 26 µM (inactive)
O=C(Nc1cc(-c2ccccc2)nn1C1CCCCC1)c1ccc(Cl)cc1	> 26 µM (inactive)
C/C(=N\N1C(=O)c2ccccc2NC1c1ccco1)c1ccccc1O (stereo not drawn)	> 26 µM (inactive)
O=C(NNc1ccccc1Br)C(O)(c1cccc(C(F)(F)F)c1)c1cccc(C(F)(F)F)c1	> 26 µM (inactive)
O=C(N/N=C/c1cccnc1)c1ccccc1NS(=O)(=O)c1cccs1	> 26 µM (inactive)
CC(=O)C1=C(c2ccc(Br)cc2)C(=O)c2ccccc2C1=O	> 26 µM (inactive)
CC(C)C(=O)NC(c1ccccc1)c1cc([N+](=O)[O-])c2cccnc2c1O (stereo not drawn)	> 26 µM (inactive)
COc1cnc(-c2ccccn2)nc1N(C)c1ccccc1	> 26 µM (inactive)
Nc1nc(F)nc2c1ncn2[C@@H]1O[C@H](CO)[C@@H](O)[C@H]1O	> 26 µM (inactive)
CNc1nc2cc([N+](=O)[O-])c([N+](=O)[O-])cc2nc1NC	> 26 µM (inactive)
COc1ccc(C(NC(C)=O)c2cc(Cl)c3cccnc3c2O)cc1OC (stereo not drawn)	> 26 µM (inactive)
CCCCCCn1c2c(c(=N)c3c1CCC3)CCC2	> 26 µM (inactive)
COc1cccc(/C=N/NC(=O)c2c(C)nc3ccc(Br)cn23)c1O	> 26 µM (inactive)
Cc1ccc(-n2c(-c3ccccc3)c[n+]3c2CCC3)cc1	> 26 µM (inactive)
NC(N)=N/N=C/c1ccc(N(c2ccccc2)c2ccccc2)cc1	> 26 µM (inactive)
CCOC(=O)c1cnc(-n2nc(C)cc2C)nc1NCc1ccccc1	> 26 µM (inactive)
O=[N+]([O-])c1ccc(N=Nc2c(Cl)cc(O)cc2Cl)cc1	> 26 µM (inactive)
c1ccc2c(c1)OCC(CNc1ncnc3sccc13)O2 (stereo not drawn)	> 26 µM (inactive)
Cc1ccc(NC(=O)C(C)Sc2nnc(C)n2C2CC2)cc1S(=O)(=O)N1CCOCC1 (stereo not drawn)	> 26 µM (inactive)
CCn1c(/C=C/c2ccc([N+](=O)[O-])o2)nc2ccccc2c1=O	> 26 µM (inactive)
CCCCN(C)CCNC(=O)c1cc2c(-c3ccccc3F)nn(C)c2s1	> 12 µM (inactive)
CC(=O)NC(C)c1cc(Cl)c2cccnc2c1O (stereo not drawn)	> 26 µM (inactive)
CCOC(=O)c1sc(SC)c2c1CCC/C2=N/OC	> 26 µM (inactive)
O=C(Nc1ccc(Br)c(C(F)(F)F)c1)c1ccc(C(F)(F)F)cc1	> 26 µM (inactive)
CN(C)CCCn1cnc2c(c1=N)C(c1ccccc1)c1ccc3ccccc3c1O2 (stereo not drawn)	9.99 µM

Structure (SMILES)	AC50
Cc1ccc(S(=O)(=O)Nc2ccc(C(OC(=O)c3ccccc3[N+](=O)[O-])(C(F)(F)F)C(F)(F)F)cc2)cc1	> 26 µM (inactive)
C/C(=N/Nc1nc(-c2ccccc2)cc(-c2ccc(F)cc2)n1)c1cccc(N)c1	> 26 µM (inactive)
Cc1cc(C)nc(SCC(=O)Nc2ccnc3ccccc23)n1	> 26 µM (inactive)
O=C(C(Sc1ccccc1)c1ccccc1)N1CCN(c2ccccc2F)CC1 (stereo not drawn)	> 26 µM (inactive)
CCCCC(=O)NC(c1ccc(N(C)C)cc1)c1ccc2cccnc2c1O (stereo not drawn)	> 26 µM (inactive)
Cc1ccc(-n2c(Cl)c(Cl)nc(Cl)c2=O)cc1	> 26 µM (inactive)
Cn1nc([N+](=O)[O-])nc1Sc1cccc2cccnc12	> 26 µM (inactive)
Cc1cc(C)nc(OC(=O)c2ccc(Cl)cc2Cl)n1	> 26 µM (inactive)
COc1ccc(CC2(CO)CCN(CC3=Cc4cc(Cl)ccc4OC3)CC2)cc1	> 26 µM (inactive)
Cc1ccc(S(=O)(=O)NCc2ccncc2)c(C)c1C	> 26 µM (inactive)
CN(C)c1ccc(/C=C/c2ccc3ccccc3n2)cc1	> 26 µM (inactive)
O=C1C(=O)c2c(C(=O)c3ccccc3)coc2-c2ccccc21	> 26 µM (inactive)
Cc1ccc2[nH]c3c(N4CCc5ccccc5C4)ncnc3c2c1	> 26 µM (inactive)
CCN(CC)CCOc1ccc2c(c1)C(=NO)c1cc(OCCN(CC)CC)ccc1-2	6.61 µM
O=C(N/N=C(\c1ccccc1)c1ccccn1)c1cccc([N+](=O)[O-])c1	> 26 µM (inactive)
CCCc1cc(=O)n2[nH]cc(-c3ccc(Cl)cc3)c2n1	> 26 µM (inactive)
C[n+]1c2n(c3ccccc31)N=C(c1ccc(-c3ccccc3)cc1)CS2	> 26 µM (inactive)
Fc1cccc(Cl)c1-c1nnc2ccc3ccccc3n12	> 26 µM (inactive)
COc1ccccc1-n1c(=O)oc2ccc(Cl)cc2c1=O	> 26 µM (inactive)
CN1/C(=C\C(=O)c2ccco2)C(C)(C)c2ccccc21	> 26 µM (inactive)
CCOc1ccc(Nc2cc(C)nc(-n3nc(C)cc3C)n2)cc1	> 26 µM (inactive)
Cc1ccc(C(=O)N/C(=C\c2ccc(-c3ccc(Cl)cc3)o2)C(=O)NCCCN(C)C)cc1	11.9 µM
CC(O)CNc1nc2sc3c(c2c(=O)n1Cc1ccco1)CCCCC3 (stereo not drawn)	> 12 µM (inactive)
CC(=O)Nc1sc2c(c1-c1nc3ccccc3s1)CN(C(C)C)CC2	> 26 µM (inactive)
Cc1ccc(C2CC(c3cccc(C)c3)n3nc(N)nc3N2)cc1 (stereo not drawn)	> 26 µM (inactive)

Structure (SMILES)	AC50
COc1ccc(-c2nc3ccc(C)cn3c2NCc2ccccc2)cc1SC1CCCCC1	> 26 µM (inactive)
COc1ccc(Sc2nc(-c3ccccn3)ncc2OC)cc1	> 26 µM (inactive)
CC1=CC2/C=C(\C)CCC(O)C(O)/C=C/C(=O)C23C(=O)NC(CC(C)C)C3C1C (stereo not drawn)	> 26 µM (inactive)
COc1cc2c(cc1OC)-c1c(OC)c(OC)c(OC)c3ccnc(c13)C2=O	7.97 µM
C/C(=N\NC(=O)C(C)Oc1ccc([N+](=O)[O-])cc1)c1ccccn1 (stereo not drawn)	> 26 µM (inactive)
COc1cccc(/C=N/NC(=O)c2ccc(-c3ccccc3)cc2)c1O	> 26 µM (inactive)
CCN(CC)S(=O)(=O)c1cccc(NC(=O)Nc2cccc(C(F)(F)F)c2)c1	> 26 µM (inactive)
Cc1nnc(N=c2ssnc2Cl)o1	> 26 µM (inactive)
Cc1ccccc1-[n+]1c(-c2ccccc2)cc(-c2ccccc2)cc1-c1ccccc1	> 26 µM (inactive)
CN1CCN(c2ccc(CNS(=O)(=O)Cc3cccc(C(F)(F)F)c3)cc2)CC1	> 26 µM (inactive)
COc1ccc(Br)cc1CN(C)CC(=O)NCc1ccc(F)cc1	> 26 µM (inactive)
CN(C)CCCN(C(=O)COc1ccc(Cl)cc1)c1nc2cc3c(cc2s1)OCO3	> 26 µM (inactive)
CCc1ccc(-c2cc(C(F)(F)F)n3nc(C(=O)Nc4cnn(Cc5ccc(C)cc5)c4)cc3n2)s1	> 26 µM (inactive)
NS(=O)(=O)c1ccc(N=Nc2ccc(O)c3ncccc23)cc1	> 26 µM (inactive)
CCCCCCCCCCOC(=O)Cn1c(COc2ccc(C)cc2)[n+](C)c2ccccc21	> 26 µM (inactive)
O=C(N/N=C/c1ccc([N+](=O)[O-])o1)c1cc2ccccc2o1	> 26 µM (inactive)
C=CCc1cccc(/C=N/NC(=O)c2ccccc2OC)c1O	> 26 µM (inactive)
O=C(CCCc1nc(-c2ccc(Cl)cc2)no1)NC1CCCC1	> 12 µM (inactive)
COc1ccc(O)c(/C=N/NC(=O)c2ccc(CSc3nc(C)cc(C)n3)cc2)c1	> 26 µM (inactive)
CC1=NNC(=O)/C1=C\c1cn(-c2ccccc2)nc1-c1cccs1	> 26 µM (inactive)
CCCCC(CC)CN1C(=O)/C(=C/c2ccncc2)SC1=S (stereo not drawn)	> 26 µM (inactive)
c1ccc2c(NCCCN3CCOCC3)c3ccccc3nc2c1	7.15 µM
CCCCCCCCn1c(=O)c(C(=O)OC)c(N)c2ccccc21	> 26 µM (inactive)
CN1/C(=C\P(=O)(N(C)C)N(C)C)C(C)(C)c2ccccc21	> 26 µM (inactive)
COc1cc(NC(=O)c2[nH]cnc2C(N)=O)cc(C(=O)Nc2cccc(C(F)(F)F)c2)c1	> 26 µM (inactive)

Structure (SMILES)	AC50
O=Nc1c(O)c2ccccc2c2ccccc12	> 26 µM (inactive)
CC(C)=CCc1cc2c(=O)c3c(O)c4c(cc3oc2c(O)c1O)OC(C)C4(C)C (stereo not drawn)	> 26 µM (inactive)
CC(C)(C)c1cc(C(=O)N/N=C/c2ccc([N+](=O)[O-])s2)n[nH]1	> 26 µM (inactive)
c1ccc(CNc2nc(NCc3ccccc3)c3ccccc3n2)cc1	> 26 µM (inactive)
CCOC(=O)CSc1nc2c(c(=O)[nH]1)C(C)(CC)Cc1ccccc1-2 (stereo not drawn)	> 26 µM (inactive)
COc1ccc(-n2c(=S)[nH]c3cc(C(=O)Nc4ccccc4OC)ccc3c2=O)cc1	> 26 µM (inactive)
COc1ccc2nc(C)cc(N/N=C/c3ccccc3)c2c1	10.1 µM
CCCOc1ccc(/C=N/NC(=S)Nc2ccccc2[N+](=O)[O-])c(O)c1	> 26 µM (inactive)
O=S(=O)(c1ccc(Cl)cc1)N1CCN(Cc2ccc(O)c3ncccc23)CC1	> 26 µM (inactive)
O=C(OCn1ncc(Cl)c(Cl)c1=O)c1ccc(F)cc1	> 26 µM (inactive)
CCC[N+]1(CC#CCC(c2ccccc2)c2ccccc2)CCCCC1	> 26 µM (inactive)
CCC(CO)Oc1cc(NCc2ccc(C)c(C)c2)c2ncn(C(C)C)c2c1 (stereo not drawn)	> 26 µM (inactive)
COc1cccc(/C=N/Nc2nc3ccccc3n3cnnc23)c1O	> 26 µM (inactive)
COc1ccc(-c2c[n+]3c(n2-c2ccccc2)CCCCC3)cc1	> 26 µM (inactive)
CCOc1cc(/C=N/NC(=O)c2cc(-c3cccc(OC)c3)nc3ccccc23)ccc1O	> 26 µM (inactive)
COC(=O)[C@@H](Cc1ccccc1)N(Cc1ccccc1)S(=O)(=O)N(Cc1ccccc1)[C@H](Cc1ccccc1)C(=O)OC	> 26 µM (inactive)
COc1cccc(/C=N\NC(=O)c2ccc(Cn3cc(Br)c([N+](=O)[O-])n3)o2)c1O	> 26 µM (inactive)
C/C(=N\NC(=O)c1c(C)nc2ccccn12)c1ccc(O)cc1O	> 26 µM (inactive)
COc1ccc(CC(=O)Nc2ccncc2Cl)cc1	> 26 µM (inactive)
COc1ccc(NC(=O)N(C)C[C@H]2Oc3c(NS(=O)(=O)c4ccc(F)cc4)cccc3C(=O)N([C@H](C)CO)C[C@@H]2C)cc1	> 26 µM (inactive)
O=C(CN1C(=O)c2ccccc2S1(=O)=O)c1ccc(F)cc1	> 26 µM (inactive)
NC(=S)N/N=C/c1c(O)ccc2ccccc12	> 26 µM (inactive)
CC(C)(C)c1ccc(C2CC2C(=O)N/N=C\c2ccc[nH]2)cc1 (stereo not drawn)	> 26 µM (inactive)
